Measurements published in PMC4948780, “PARP Inhibitors in Clinical Use Induce Genomic Instability in Normal Human Cells” (PLoS ONE, 2016).
Values joined by “and” are separate entries in the source; they are usually repeats but may differ in a detail not shown here. Equal values may be shown once. Read-outs that look alike come from different tables or passages of the source.

Key:
[1] = tested on: cellular PARP activity in EBV-BL; experiment: Cellular PARP activity assay (PAR levels, HT PARP In vivo Pharmacodynamic Assay); type: cell-based, human
Protocol: Cellular PARP activity was determined by measuring net PAR expression using HT PARP In vivo Pharmacodynamic Assay (Trevigen) as specified by the manufacturer. PAR levels in samples were calculated using standard curves and normalized using protein concentration. Protein concentration was measured with Lowry protocol using RC DC Protein Assay Kits (Bio-Rad).

EBV-BL [2] = experiment: Survival, trypan blue exclusion test of cell viability; type: cell-based, human; details: Homo sapiens, 240 h, continuous exposure 10 days, trypan blue exclusion
Text: (§1) Human mammary epithelial cell lines used included non-tumorigenic diploid MCF-10A, HMEC-hTERT and tumorigenic MDA-MB-468 (basal) and MCF-7 (luminal). […] Blood samples were obtained from normal donor participants. The participants provided written informed consent to IRB protocol #95–054 approved by the Institutional Review Board at MSKCC. The original signed consent is then sent to the research participant’s medical record and a copy of the consent is given to the participant. The EBV-transformed B-lymphocyte cell line (EBV-BL) was generated by transformation of peripheral blood mononuclear cells (PBMC) with the B95.8 strain of EBV, as previously described. Primary T cells were generated from PBMC from two normal donors by non-specific activation with phytohemagglutinin and cultured in RPMI1640 and human serum AB for 4–14 days before use. E14 mES cell line was provided by M. Hooper, Brca1^-/- 236.44 mES cell line was provided by B. H. Koller, Brca2^lex1/lex2 mES cell line was provided by P. Hasty and Lexicon Genetics. E14 wild-type, Brca1^-/- 236.44, and Brca2^lex1/lex2 mES cell lines were cultured in standard ES media. Brca1^-/- 236.44 cells express a BRCA1 peptide deleted for sequences encoded by exon 11 [52], while Brca2^lex1/lex2 cells express a BRCA2 peptide deleted for the terminal exon 27 [53]. […] Veliparib and BSI-201 were purchased from Chemie Tek. The compounds were dissolved in DMSO and PBS. For clonogenic survival assays, MCF-10A (1000 cells), HMEC-hTERT (1000 cells), MDA-MB-468 (1500 cells) and mouse ES cell (2000 cells) were seeded, vehicle control or inhibitors were added at the indicated concentration 24 hours after seeding and changed every three days for continuous treatment. At 7–14 days, colonies were fixed with methanol and stained with Giemsa. For EBV-BL (6 × 10^6) and primary T cells (3.6 × 10^6) were continuously exposed to the indicated concentration of drug for 10 days at 0.6 × 10^6 cells/ml. Viable cells were scored by trypan blue exclusion.

MCF-10A [3] = experiment: Clonogenic survival assay; type: cell-based, human
Protocol: Clonogenic survival was assessed by colony counting at 9 days. […] Viable cells were scored and enumerated by trypan blue exclusion at 7 days. Means with SD are shown (MCF-10A: n = 3, primary T cell 1: n = 2). […] Fold increases of SCE per chromosome compared with no treatment or 0.5 μM cisplatin are shown for each cell type. Approximately 50 metaphases were counted for each cell. Error bars depict the mean with SD. Asterisks designate statistical significance for unpaired t-test at P < 0.0001. C. […] One hundred metaphases were counted for each exposure. Fold increases of chromatid-type aberrations per chromosome compared with no treatment or 0.5 μM cisplatin are shown for each cell type. The y-axis is the number of total chromatid-type aberrations per chromosome for each metaphase counted. Error bars indicate mean with SEM. The P-values were calculated using unpaired t-test.
(§2) Human mammary epithelial cell lines used included non-tumorigenic diploid MCF-10A, HMEC-hTERT and tumorigenic MDA-MB-468 (basal) and MCF-7 (luminal). […] Blood samples were obtained from normal donor participants. The participants provided written informed consent to IRB protocol #95–054 approved by the Institutional Review Board at MSKCC. The original signed consent is then sent to the research participant’s medical record and a copy of the consent is given to the participant. The EBV-transformed B-lymphocyte cell line (EBV-BL) was generated by transformation of peripheral blood mononuclear cells (PBMC) with the B95.8 strain of EBV, as previously described. Primary T cells were generated from PBMC from two normal donors by non-specific activation with phytohemagglutinin and cultured in RPMI1640 and human serum AB for 4–14 days before use. E14 mES cell line was provided by M. Hooper, Brca1^-/- 236.44 mES cell line was provided by B. H. Koller, Brca2^lex1/lex2 mES cell line was provided by P. Hasty and Lexicon Genetics. E14 wild-type, Brca1^-/- 236.44, and Brca2^lex1/lex2 mES cell lines were cultured in standard ES media. Brca1^-/- 236.44 cells express a BRCA1 peptide deleted for sequences encoded by exon 11 [52], while Brca2^lex1/lex2 cells express a BRCA2 peptide deleted for the terminal exon 27 [53]. Olaparib was synthesized in the MSKCC Organic chemistry core facility. Veliparib and BSI-201 were purchased from Chemie Tek. The compounds were dissolved in DMSO and PBS. For clonogenic survival assays, MCF-10A (1000 cells), HMEC-hTERT (1000 cells), MDA-MB-468 (1500 cells) and mouse ES cell (2000 cells) were seeded, vehicle control or inhibitors were added at the indicated concentration 24 hours after seeding and changed every three days for continuous treatment. At 7–14 days, colonies were fixed with methanol and stained with Giemsa. For EBV-BL (6 × 10^6) and primary T cells (3.6 × 10^6) were continuously exposed to the indicated concentration of drug for 10 days at 0.6 × 10^6 cells/ml. Viable cells were scored by trypan blue exclusion.

WT E14 mES cells = experiment: Clonogenic survival assay, mES cells; type: cell-based; details: Mus musculus, read-out: IC50 (clonogenic survival)
Text: as §1

[4] = tested on: Brca2^lex1/lex2 mES cells; experiment: Clonogenic survival assay, mES cells; type: cell-based, mouse; details: for IC50: Mus musculus, read-out: IC50 (clonogenic survival)
Text: as §1

[5] = tested on: Brca1^-/- 236.44 mES cells; experiment: Clonogenic survival assay, mES cells; type: cell-based, mouse; details: for IC50: Mus musculus, read-out: IC50 (clonogenic survival)
Text: as §1

MCF-10A [6] = experiment: Sister chromatid exchange (SCE) assay, BrdU differential staining; type: cell-based, human
Text: as §2
(§3) To prepare metaphase spreads, exponentially growing cells were treated with 0.1–0.3 μg/ml of colcemid for 1–6 hr. Cells were collected and incubated in hypotonic solution (0.56% KCl), fixed in methanol: acetic acid (3:1), spotted to slides and air-dried. To measure chromosomal aberrations, the slides were stained with 2% Giemsa/Sorensen’s buffer. To visualize SCEs, the doubling time for each cell type was determined. Cells were incubated with 10 μM BrdU for two cell cycles. After metaphase spreads were prepared, the slides were treated with 0.5 μg/ml Hoechst 33258. The slides were exposed to black light for 20–60 min, incubated at 60°C for 2 hr, and stained in 4–10% Giemsa/Sorensen’s buffer.

EBV-BL [7] = experiment: as above; type: cell-based, human
Text: as §2, §3

BRCA-deficient mES cells = tested on: BRCA-deficient mES cells; set-up: method as in PMID 15829967; details: cited from earlier work
primary T cell 1 [8] = experiment: Survival, trypan blue exclusion; type: cell-based, human; details: first 24 hr, trypan blue exclusion at 7 days, read-out: IC50 (survival), cisplatin alone
Protocol: A. […] Viable cells were scored and enumerated by trypan blue exclusion at 7 days. […] Approximately 50 metaphases were counted for each cell. Error bars depict the mean with SD. Asterisks designate statistical significance for unpaired t-test at P < 0.0001. C. […] One hundred metaphases were counted for each exposure. […] The y-axis is the number of total chromatid-type aberrations per chromosome for each metaphase counted. Error bars indicate mean with SEM. The P-values were calculated using unpaired t-test.

primary T cell 1 [9] = experiment: Chromosomal aberrations on metaphase spreads (Giemsa); type: cell-based, human; details: 0.5 μM cisplatin alone, 24 hr
Protocol: as §3

primary T cell 1 [10] = experiment: Sister chromatid exchange (SCE) assay, BrdU differential staining; type: cell-based, human; details: 0.5 μM cisplatin alone, first 24hr
Text: as §2, §3

[11] = Homo sapiens, continuous exposure, clonogenic survival assay, read-out: IC50 (cell survival)

NC(=O)c1ccc(I)c([N+](=O)[O-])c1 [BSI-201]
decrease of PARP activity ([1]; EBV-BL, 24 hr, BSI-201 treated, vs untreated cells): ~ 60%
IC50 (EBV-BL [2]; EBV-BL, read-out: IC50 (cell survival)): 48.9 µM
IC50 (MCF-10A [3]; [11]): 56 µM
IC50 (WT E14 mES cells; wild-type E14 mES cells): 111 µM
IC50 ([4]; Brca2^lex1/lex2 mES cells): 70 µM
enhanced sensitivity of cells lacking wild-type BRCA2 vs wild-type cells ([4]; ratio of IC50, wild-type / Brca2^lex1/lex2): 1.6 fold
IC50 ([5]; Brca1^-/- 236.44 mES cells): 74 µM
enhanced sensitivity of cells lacking wild-type BRCA1 vs wild-type cells ([5]; ratio of IC50, wild-type / Brca1^-/- 236.44): 1.5 fold
Mean no. SCE / metaphase ± SD (MCF-10A [6]; 20 μM): 7.9 ± 2.9
Mean no. SCE / metaphase ± SD (MCF-10A [6]; 40 μM): 8.6 ± 2.9
Mean no. SCE / metaphase ± SD (MCF-10A [6]; 80 μM): 9.4 ± 2.6
Mean no. SCE / metaphase ± SD (EBV-BL [7]; 20 μM): 8.4 ± 3.6
Mean no. SCE / metaphase ± SD (EBV-BL [7]; 40 μM): 9.4 ± 2.9
Mean no. SCE / metaphase ± SD (EBV-BL [7]; 80 μM): 16.6 ± 4.2

O=C1CCC(=O)N1c1cc(Cc2n[nH]c(=O)c3ccccc23)ccc1F [KU0058684]
sensitivity of BRCA-deficient mES cells (BRCA-deficient mES cells): marked hypersensitivity

O=C(c1cc(Cc2n[nH]c(=O)c3ccccc23)ccc1F)N1CCCNCC1 [KU0058948]
sensitivity of BRCA-deficient mES cells (BRCA-deficient mES cells): marked hypersensitivity

N.N.[Cl][Pt][Cl] [cisplatin]
IC50 (primary T cell 1 [8]): 1.74 µM
IC50 (MCF-10A [3]; cisplatin first 30 hr, colony counting at 9 days, read-out: IC50 (survival), cisplatin alone): 3.4 µM
Fold increase of chromatid-type aberrations per chromosome compared with no treatment (primary T cell 1 [9]): 2 fold
total chromatid-type aberrations / metaphase (mean ± SEM) (primary T cell 1 [9]): 0.38 ± 0.07
chromatid-type gap/break (primary T cell 1 [9]; 100 metaphases): 36
chromatid-type radial chromosome (primary T cell 1 [9]; 100 metaphases): 1
chromatid-type telomere association (primary T cell 1 [9]; 100 metaphases): 0
chromosome-type dicentric (primary T cell 1 [9]; 100 metaphases): 1
chromosome-type gap/break (primary T cell 1 [9]; 100 metaphases): 6
total chromatid-type aberrations (primary T cell 1 [9]; 100 metaphases): 38
Fold increase of SCE per chromosome compared with no treatment (primary T cell 1 [10]): 3.8 fold
Mean no. SCE / chromosome ± SD (primary T cell 1 [10]): 0.79 ± 0.23
Mean no. SCE / metaphase ± SD (primary T cell 1 [10]): 36.6 ± 10.8
Fold increase of SCE per chromosome compared with no treatment (MCF-10A [6]; 0.5 μM cisplatin alone, 30 hr): 6.3 fold
Mean no. SCE / chromosome ± SD (MCF-10A [6]; 0.5 μM cisplatin alone, 30 hr): 1.03 ± 0.12
Mean no. SCE / metaphase ± SD (MCF-10A [6]; 0.5 μM cisplatin alone, 30 hr): 47.7 ± 5.5

C[C@]1(c2nc3c(C(N)=O)cccc3[nH]2)CCCN1 [veliparib]
decrease of PARP activity [1]: ~ 98% and > 99%
IC50 (EBV-BL [2]; read-out: IC50 (cell survival), EBV-BL): 42.5 µM
IC50 (MCF-10A [3]; [11]): 69.1 µM
IC50 (WT E14 mES cells): 1.6 µM
IC50 [4]: 0.171 µM
IC50 [5]: 0.0097 µM
Mean no. SCE / metaphase ± SD (MCF-10A [6]; 1.5 μM): 26.9 ± 6.6
Mean no. SCE / metaphase ± SD (MCF-10A [6]; 10 μM): 51.3 ± 9.4
Mean no. SCE / metaphase ± SD (EBV-BL [7]; 1.5 μM): 18.7 ± 4.6
Mean no. SCE / metaphase ± SD (EBV-BL [7]; 10 μM): 32.2 ± 7.2
